Assay results published in PMC11056319, “Targeting PRMT9-mediated arginine methylation suppresses cancer stem cell maintenance and elicits cGAS-mediated anticancer immunity” (Nature Cancer, 2024).

These molecules were tested on Molm13 (assay: cells). Conditions: 1 uM, 4 days, 96 h.
Set-up: Molm13 cell viability screen of virtual-screening hits, 4 days of treatment, per cent of control
Procedure: We performed virtual screening. Briefly, we screened compounds for binding affinity to PRMT9; compounds were from the National Cancer Institute (NCI) and ZINC library (Fig. 4a,b). […] We used doses of 1 and 5 µM in a Molm13 cell-based viability assay (Extended Data Fig. 6a). […] Specifically, we assessed their effects on PRMT9 catalysis (Extended Data Fig. 6b). […] Cells were treated for 4 days with 1 or 5 μM compounds. For each compound, the number represents its library ID. Experiments were triplicated; P values were derived from t tests. b, R493 methylation assay. […] Catalytic activity was assessed by anti-R493 antibody. Synthesized R493me peptide as positive control. c, Catalysis screen of top 20 compounds. PRMT9 protein was pretreated with indicated compound (10 μM), then incubated with PABPC1 peptides and SAM. d, e, Catalytic activity of indicated compounds based on R493 methylation assay (d). Inhibition curves were calculated based on intensity of dots and normalized to DMSO (e). […] LD2 is designed based on NSC641396 (g). Docking model of NSC641396 in the catalytic pocket (f). h, IC50 analysis of LD2 in B-NHL lines. Cells were treated for 4 days with LD2. […] Cells were treated with a dose titration of 0.5–40 μM LD2 for 48 hr. The inhibition activity of LD2 to PRMT9 (right red curve) was evaluated by calculating the normalized PABPC1 R493 methylation signal. The inhibition activity of LD2 to PRMT5 (right blue curve) was evaluated by calculating the normalized SmB’B’ methylation signal (supplementary Fig. 2). k, Vina docking of LD2 with PRMT9, PRMT5, CARM1 or PRMT7 was performed, and the average docking scores (kcal/mol, with standard deviation) were shown. l, Molecular dynamics simulation analyses of LD2 with PRMT9 or PRMT5.
With OC(COc1cccc2ccccc12)CN1CCN(c2ccc(Cl)cc2)CC1 (stereo not drawn) [NSC91397] the “% viability” value was 148.7%.

Same assay, conditions: 5 uM, 4 days, 96 h
With OC(COc1cccc2ccccc12)CN1CCN(c2ccc(Cl)cc2)CC1 (stereo not drawn) [NSC91397] the “% viability” value was 145.8%.

Same assay, conditions: Homo sapiens, MOLM-13, 96 h, 4 days
Cc1ccc(-c2nc(-c3nccc4ccccc34)oc2-c2ccccc2)cc1 [NSC116702] was tested, and the viability at 1 µM was 87.8% and the viability at 5 µM was 150%.
Work on CCNc1nc(Cl)nc(-c2cn(-c3ccccc3)c3ccccc23)n1 [NSC142446] yielded a viability at 1 µM of 87.1%.
O=[N+]([O-])c1ccc(C2CC(c3ccccc3)=Nc3ccccc3S2)cc1 (stereo not drawn) [NSC270738] gave a viability at 1 µM of 84.6%.
CCN1Cc2c(/C=C/c3ccccc3)nc3ccc(OC)cc3c2N(c2cccc(Cl)c2)C1 [NSC340852] gave a viability at 1 µM of 88.3% and a viability at 5 µM of 53.2%.
For O=C(CC1C=Cc2ccccc2N1C(=O)c1ccccc1)c1ccccc1 (stereo not drawn) [NSC116709], the viability at 1 µM was 90.2% and the viability at 5 µM was 72.7%.
C[C@]12C[C@H](O)[C@H]3[C@@H](CCC4=CC(=O)CC[C@@]43C)[C@@H]1CC[C@@H]2c1csc(-c2ccccc2)n1 [NSC93354] gave a viability at 1 µM of 91.9% and a viability at 5 µM of 69.1%.
Work on Nc1ccc(-c2nc3nc(N)nc(N)c3nc2-c2ccc(N)cc2)cc1 [NSC61642] yielded a viability at 5 µM of 116%.
With O=C1c2cccc(Sc3ccccc3)c2C(=O)c2c(Sc3ccccc3)cccc21 [NSC156516] the viability at 1 µM was 122% and the viability at 5 µM was 118%.
In the case of C#Cc1cccc(NC(=O)c2ccc(Cl)cc2Cl)c1 [NSC372769], the viability at 1 µM is reported as 82.8% and the viability at 5 µM is reported as 93.1%.
Nc1nc(N)c2cc(Sc3ccc4ccccc4c3)ccc2n1 [NSC305780] gave a viability at 1 µM of 12.7% and a viability at 5 µM of 6.56%.
In the case of CN1C2c3ccccc3C3C4c5ccccc5C(C31)C(C2[N+](=O)[O-])N4C (stereo not drawn) [NSC137112], the viability at 1 µM is reported as 146% and the viability at 5 µM is reported as 148%.
Work on O=C(Nc1ccc(C2=NCCCN2)cc1)Nc1ccc(C2=NCCCN2)cc1 [NSC63680] yielded a viability at 5 µM of 75.2%.
With Cc1cc(O)c(C(C)C)cc1N=Cc1cc([N+](=O)[O-])ccc1O [NSC33472] the viability at 1 µM was 120%.
O=C1c2ccccc2-c2nc3ccccc3n21 [NSC252777] was tested, and the viability at 1 µM was 77.6% and the viability at 5 µM was 63.7%.
CCN(CC)c1ccc(/C=C/c2cc(-c3ccccc3)c3ccccc3n2)cc1 [NSC13487] was tested, and the viability at 1 µM was 93.3% and the viability at 5 µM was 94.8%.
C[C@H]1CC[C@@]2(C)[C@@H](CC[C@@H]3[C@@H]2CC[C@]2(C)[C@@H](O)CC[C@@H]32)C1 [NSC21603] was tested, and the viability at 5 µM was 96.5%.
With O=C(Nc1cccc(-c2ccccc2)c1)N1CCN(C(=O)Nc2cccc(-c3ccccc3)c2)CC1 [NSC37553] the viability at 1 µM was 96.2%.
With Cc1cccc(NC2=C(C#N)C(=O)NC3(CCCC3)S2)c1 [NSC319436] the viability at 1 µM was 84% and the viability at 5 µM was 77.3%.
COc1ccc(NC(=O)c2cc3ccc4c5ccccc5[nH]c4c3cc2O)cc1 [NSC50654] gave a viability at 1 µM of 127% and a viability at 5 µM of 134%.
With c1ccc(Nc2cccc3c(Nc4ccccc4)cccc23)cc1 [NSC24032] the viability at 1 µM was 120%.
In the case of Cc1cccc2c1c1ccc3c(c1n2C)C(=O)C=CC3=O [NSC645330], the viability at 1 µM is reported as 52.5% and the viability at 5 µM is reported as 10%.
With c1ccc(-n2c3ccccc3c3ccccc32)cc1 [NSC10416] the viability at 1 µM was 99.1% and the viability at 5 µM was 81.7%.
Work on COc1cc(C2NC(=O)C(C#N)=C(Nc3cccc(C)c3)S2)ccc1O (stereo not drawn) [NSC319435] yielded a viability at 1 µM of 96.8%.
COc1cccc(/C=C2\CCc3ccccc3C2=O)c1 [NSC636718] showed a viability at 5 µM of 65.6%.
For CN1CCN(C(=O)Nc2cccc(-c3ccccc3)c2)CC1 [NSC39352], the viability at 1 µM was 96.7%.
In the case of Cc1cccc2cc3cccc(C)c3nc12 [NSC61888], the viability at 1 µM is reported as 144% and the viability at 5 µM is reported as 134%.
Cc1ccc2c(c1)c1ccc3c(c1n2C)C(=O)C=CC3=O [NSC661221] gave a viability at 1 µM of 7.53% and a viability at 5 µM of 7.31%.
O=C(Nc1ccccc1F)Oc1cccc(OC(=O)Nc2ccccc2F)c1 [NSC214026] gave a viability at 1 µM of 92.2% and a viability at 5 µM of 91%.
O=C1C(=Nc2cccc(Cl)c2)CC(c2ccc(Cl)cc2)N1c1cccc(Cl)c1 (stereo not drawn) [NSC13294] gave a viability at 1 µM of 98.3% and a viability at 5 µM of 97.9%.
With O=C(Oc1ccc(NC(=O)c2cc3c(cc2Br)OCO3)cc1)c1ccccc1 [NSC268487] the viability at 1 µM was 83.1% and the viability at 5 µM was 72.1%.
For Cc1ccc(C2=Nc3ccccc3SC(c3cccc([N+](=O)[O-])c3)C2)cc1 (stereo not drawn) [NSC270737], the viability at 1 µM was 90.8% and the viability at 5 µM was 15.1%.
Work on Cc1ccc(NC(=O)Nc2nc3ccccc3s2)cc1NC(=O)Nc1nc2ccccc2s1 [NSC319990] yielded a viability at 5 µM of 96.9%.
O=C(O)CCC(=O)c1ccc2ccc3cccc4ccc1c2c34 [NSC407628] gave a viability at 1 µM of 94.7% and a viability at 5 µM of 100%.
COc1ccc(C2OC3=C(Nc4cc(C)c(C)cc4N3)C2=O)cc1 (stereo not drawn) [NSC372275] showed a viability at 1 µM of 95.6%.
With CC(=O)O[C@H]1CC[C@]2(C)C(=CC[C@H]3[C@H]4C[C@H]5O[C@]6(CC[C@H](C)CN6)[C@H](C)[C@@H]5[C@]4(C)CC[C@@H]32)C1 [NSC96021] the viability at 1 µM was 102% and the viability at 5 µM was 87.9%.
With c1cc2c3c(cccc3c1)NC1(CCC3(CC1)Nc1cccc4cccc(c14)N3)N2 [NSC97920] the viability at 1 µM was 59.1% and the viability at 5 µM was 8.91%.
c1ccc(-c2nc3ccccc3nc2-c2ccc(Sc3ccc(-c4nc5ccccc5nc4-c4ccccc4)cc3)cc2)cc1 [NSC293778] gave a viability at 1 µM of 95.7%.
With O=C(Nc1ccc2ccccc2c1)c1ccc(Cl)cc1Cl [NSC158959] the viability at 5 µM was 127%.
With COc1cc2c(cc1OC)C(=O)Cc1ccc3c(c1CN(C)CC2)OCO3 [NSC32984] the viability at 1 µM was 137%.
For Cc1c(N2CCCC2)cc2c(c1NC(=O)c1ccccc1Cl)C(C)(C)CC2(C)C [NSC321496], the viability at 1 µM was 92.4% and the viability at 5 µM was 79.1%.
COc1ccc(/C=C2\Cc3ccccc3C2=O)cc1OC [NSC643174] was tested, and the viability at 1 µM was 116% and the viability at 5 µM was 81%.
In the case of Cc1cc(N=Nc2c(O)c3ccccc3[nH]c2=O)ccc1N=Nc1ccc(C(=O)N(C)C)cc1 [NSC58052], the viability at 1 µM is reported as 96% and the viability at 5 µM is reported as 80.5%.
Molecule COc1ccc2nc(-c3ccc(Cl)cc3)cc(C(=O)O)c2c1 [NSC39984] has a viability at 1 µM of 76.8% and a viability at 5 µM of 79.5%.
O=C(Nc1ccc(C2=NCCN2)cc1)c1ccc(Cl)c(C(=O)Nc2ccc(C3=NCCN3)cc2)c1 [NSC67436] was tested, and the viability at 1 µM was 95.2% and the viability at 5 µM was 81.3%.
For COc1ccc2c3c([nH]c2c1)[C@H]1C[C@H]2[C@H](C[C@@H](O)[C@H](OC)[C@H]2CO)CN1CC3 [NSC80137], the viability at 1 µM was 82.2% and the viability at 5 µM was 75.6%.
OC(COc1cccc2ccccc12)CN1CCN(c2ccccc2Cl)CC1 (stereo not drawn) [NSC91396] gave a viability at 1 µM of 147% and a viability at 5 µM of 143%.
With N#Cc1ccc(NC(=O)Nc2ccc(Oc3ccc(NC(=O)Nc4ccc(C#N)cc4)cc3)cc2)cc1 [NSC80734] the viability at 5 µM was 67.2%.
O=C(/C=C/c1ccc(O)c(O)c1)O[C@@H]1C[C@@](OC(=O)/C=C/c2ccc(O)c(O)c2)(C(=O)O)C[C@@H](O)[C@@H]1O [NSC91529] gave a viability at 1 µM of 110%.
O=C(O)c1ccccc1-c1ccccc1C(=O)Nc1ccc2c(c1)nc(O)c1ccccc12 [NSC127133] was tested, and the viability at 1 µM was 99% and the viability at 5 µM was 102%.
For O=C(Nc1cccc([N+](=O)[O-])c1)c1cccc(C(=O)Nc2cccc([N+](=O)[O-])c2)c1 [NSC204232], the viability at 1 µM was 110%.
With N#C/C(=C\C=C\c1ccccc1)c1nc(-c2ccc(Cl)cc2)cs1 [NSC310347] the viability at 1 µM was 69.3% and the viability at 5 µM was 74.4%.
OC(COc1cccc2ccccc12)CN1CCN(c2ccccc2)CC1 (stereo not drawn) [NSC91398] gave a viability at 1 µM of 59.8% and a viability at 5 µM of 60.9%.
Molecule Cc1c(O)ccc2c(O)c(NC(=O)c3ccc4c(c3)CCC(C)(C)O4)c(=O)oc12 [NSC5157] has a viability at 1 µM of 94.6%.
Molecule O=C(/C=C/C(=O)N1CCc2ccccc2C1)N1CCc2ccccc2C1 [NSC87838] has a viability at 1 µM of 92.3% and a viability at 5 µM of 92.6%.
With Clc1ccccc1/C=C/c1ccnc2ccccc12 [NSC15784] the viability at 1 µM was 85.7% and the viability at 5 µM was 81.7%.
Cc1ccc(NC(=S)NC(=O)c2ccccc2)cc1NC(=S)NC(=O)c1ccccc1 [NSC5856] gave a viability at 1 µM of 91.4% and a viability at 5 µM of 91.5%.
O=C(Nc1ccc(Nc2ccncc2)cc1)c1ccc(Nc2ccnc3ccc([N+](=O)[O-])cc23)cc1[N+](=O)[O-] [NSC202386] showed a viability at 1 µM of 118% and a viability at 5 µM of 80.4%.
With CCn1c2ccccc2c2cc(NC(=O)c3ccccc3-c3ccccc3C(=O)O)ccc21 [NSC132232] the viability at 1 µM was 91.3%.
For CCCc1cc(=O)oc2c3c(c4c(c12)OC(C)(C)C=C4)OC(C)[C@H](C)[C@@H]3O (stereo partly drawn) [NSC661122], the viability at 1 µM was 100% and the viability at 5 µM was 79.3%.
For c1ccc(CSc2nnc3c4ccccc4c4ccccc4c3n2)cc1 [NSC327702], the viability at 1 µM was 86.4% and the viability at 5 µM was 82.6%.
CC(=O)OCc1cc(-c2nc3ccccc3nc2O)nn1-c1ccc(Cl)cc1 [NSC339161] was tested, and the viability at 5 µM was 87.5%.
Oc1ccccc1N=Cc1c(O)ccc2ccccc12 [NSC111847] was tested, and the viability at 5 µM was 85.7%.
CC1=CC(C)(C)Nc2ccc(Cc3ccc4c(c3)C(C)=CC(C)(C)N4)cc21 [NSC217697] was tested, and the viability at 1 µM was 69.3% and the viability at 5 µM was 74.4%.
